Here are results for two compounds from patent publication US10203322B2, “Method for identifying subjects with increased risk of ST-segment elevation myocardial infarction (STEMI) and identifying subjects likely to respond to particular treatments” (Vanderbilt University, priority 2017, dated 2019).

The subject of experiment [1] is platelets (platelet-rich plasma). Put plainly: Platelet phenotyping: platelet aggregation in platelet-rich plasma by light transmission aggregometry, U46,619 with or without PGE2. The note with it: PGE2 100 nmol/L preincubated with PRP, sub-maximal U46,619, aggregation recorded 6 min, n=86 (FIG. 1). The format is cell-based, human. The method, then: Measurements of platelet aggregation in PRP were made using light transmission aggregometry using a Chrono-Log lumi-aggregometer (Model 460VS). The aggregometer was calibrated for each sample to read 0-10% light transmission for PRP and 90-100% light transmission for PPP. Aliquots of PRP were placed in siliconized glass cuvettes containing Teflon-coated stir bars and incubated for 2 minutes at 37° C. PRP was preincubated with or without 100 nM PGE2 for 10-20 s before adding U46,619 at various concentrations. Samples were stirred at 800 rpm throughout a 6 minute aggregation run. Experiments were completed within 2 hours of phlebotomy. Percentage aggregation was recorded with Aggrolink software (Chrono-Log) and exported to GraphPad Prism for analysis. For each subject, multiple doses of U46,619 agonist were used to construct a dose response curve according to methods described previously; each U46,619 dose was tested with and without PGE2.
In order to describe the phenotypic observation in a quantitative rather than just qualitative format a continuous variable was constructed as follows: for each dose of U46,619, the aggregation value obtained at the end of the 6 min run in the presence of PGE2 was subtracted from the value obtained without PGE2. The largest difference was reported as the maximum PGE2 effect (maximum difference). […]

Experiment [2] concerns platelets from an individual with the low threshold phenotype. The note with it: platelets of low threshold (potentiating) phenotype treated with the EP3 antagonist; ref [6], FIG. 2; cited from earlier work.

On to `CCCCC[C@H](O)/C=C/[C@H]1[C@H](O)CC(=O)[C@@H]1C/C=C\CCCC(=O)O` [PGE2, Prostaglandin E2], for which, in experiment [1], the “individuals in whom PGE2 decreases the threshold of platelet activation by the thromboxane agonist U46,619 (inhibitory phenotype)” value is given as 56 % of individuals and the “individuals in whom PGE2 increases the threshold of platelet activation by the thromboxane agonist U46,619 (potentiating phenotype)” value is recorded as 44 % of individuals.
`Cc1cn(Cc2ccc(Cl)cc2Cl)c2c(/C=C/C(=O)NS(=O)(=O)c3cc(Cl)c(Cl)s3)cc(F)cc12` [DG-041]: the “shift of PGE2 response phenotype” value in experiment [2] is “the phenotype shifts to high threshold”.
